US6426330B1, “Satiety inducing composition comprising Neuropeptide Y analogues and methods of inducing satiety and treating a disease or condition associated with it” (East Carolina University, priority 1995, dated 2002)
Square brackets hold non-standard residues; d marks the D form. Ends that are not written are not given here.

Test system: normotensive Sprague-Dawsley rats
Assay: In vivo activity: blood pressure and heart rate after intravenous dosing in catheterised rats
Design: species or system rat
Procedure: Male Sprague-Dawley rats obtained from Charles River Laboratories, Wilmington, Mass., and weighing 276-300 g, were group housed at 22° C. and kept on 12 hour light/dark cycle. Food and water were provided ad lib.
Animals were anesthetized with sodium pentobarbital (65 mg/kg) and under sterile conditions a one-inch incision was made in the fold of the left leg to expose the femoral blood vessels. Two lengths of PE-50 tubing filled with 10% heparin were inserted into the left femoral artery and left femoral vein for measurement of blood pressure and for drug delivery, respectively. The tubings were tunneled under the skin and exposed through the mid-scapular region. Animals were allowed at least 24 hours recovery prior to experiments.
A force transducer (Spectramed Model P23XL, Grass Instruments, Quincy, Mass., USA), and tachograph (Model 7P44D, Grass Instruments) was used for recording of systolic and diastolic pressures and heart rate from the femoral artery catheter. Patency of catheters was verified by flushing with either saline or 10% heparin.
A dose of either 30, 100, 500, 800 or 1000 nM/kg ([…]) of NPY27-36 (D-Tyr^27,36, D-Thr^32) (prepared as described in Example 1 above), or saline was delivered to the animal via the catheter in the left femoral vein. Changes in systolic and diastolic pressures and heart rater were recorded from the catheter in the left femoral artery over a 10 minute time interval.

[1] = given intraveneously, doses 30-1000 nM/kg, recorded over 10 minutes, normotensive rats

## [dY]INLI[dT]RQR[dY]-NH2 [NPY27-36 (D-Tyr^27,36, D-Thr^32)]
Dose 30 nM/kg i.v.
  changes in mean arterial pressure and heart rate vs saline: failed to produce changes that were significantly different from saline treatment
Dose 100 nM/kg i.v.
  changes in mean arterial pressure and heart rate vs saline: failed to produce changes that were significantly different from saline treatment
Dose 500 nM/Kg i.v.
  mean arterial pressure vs saline-treated controls: significantly different decreases
Dose 500 nM/kg i.v.
  heart rate vs saline controls: significantly different increases
Dose 800 nM/Kg i.v.
  mean arterial pressure vs saline-treated controls: significantly different decreases
Dose 1000 nM/Kg i.v.
  mean arterial pressure vs saline-treated controls: significantly different decreases
Dose 1000 nM/kg i.v.
  heart rate vs saline controls: significantly different increases
[1]
  heart rate: increase
  mean arterial pressure: dose-dependent decrease
